These results are taken from article PMC9122897, “SHR1032, a novel STING agonist, stimulates anti-tumor immunity and directly induces AML apoptosis” (Scientific Reports, 2022).

pEC50: −log10 of the molar value. Read-outs that look alike come from different tables or passages of the source.

Assay [1] has as its system THP1-STING-R232 cells. The assay can be described thus: CellTiter-Glo cell growth. The format is cell-based, human. The protocol: (§1) (a–d) AML cells were treated with STING agonists and standard of care cytarabine, and cell viability was measured by CellTiter Glo in (a) THP1-STING-R232, (b) THP1-STING-KO, (c) MV-4-11 and (d) MOLM-16. (e) MV-4-11, MOLM-16 and THP1-STING-KO cells were stimulated with 1 µM of SHR1032 for the indicated time points. The amount of pTBK1, total TBK1, pSTING, total STING and α-tubulin was measured by Western blot. pSTING phosphorylated STING. THP1 reporter cells were treated for 24 h with a total of 100 k cells and 150 ul media in each well a 96-well plate. Following the incubation, 20 µl of supernatant was transferred to an opaque 96 well ½ area plate and incubated for 30 s with 50 µl of QUANTI-Luc substrate (InvivoGen) per manufacturer’s instructions. Luminescence signal was measured using Tecan infinite M1000. EC50 values were calculated using non-linear regression analysis of GraphPad Prism. Cell growth was monitored by CellTiter-Glo Luminescent Cell Viability Assay (Promega) per manufacture’s protocol. GI50 values were calculated using non-linear regression analysis of GraphPad Prism. Cell lysates for western blotting were made in RIPA buffer (Sigma) with Halt Protease and Phosphatase Inhibitors (Thermo Scientific). Antibodies against pSTING, TBK1, pTBK1 and tubulin were purchased from Cell Signaling Technologies, and anti-STING was purchased from Protein Tech.

For assay [2], the system named is MV4-11 cells. Put plainly: CellTiter-Glo cell growth. The note with it: Homo sapiens; MV4-11, CellTiter Glo. The format is cell-based. The protocol: as §1
A general note: In ATP-based viability assays light output follows the ATP content of the culture.

The subject of assay [3] is MOLM-16 cells. Put plainly: CellTiter-Glo cell growth. The class given is cell-based. The note with it: Homo sapiens, MOLM16; MOLM-16, CellTiter Glo. The protocol: as §1
Assay [4] relates to THP1-STING-KO cells. Put plainly: CellTiter-Glo cell growth. The format is cell-based, human. As to the method: as §1
Assay [5] deals with MC38 mouse syngeneic colorectal adenocarcinoma. The assay can be described thus: MC38 syngeneic tumor model. The class given is in vivo, C57BL/6 mouse. The note with it: 50 µg intratumorally on day 1, 5, 8; after 21 days since the first dosing. As to the method:
Figure 3 Robust cytokine induction and antitumor effects in vivo. (a,b) C57BL/6 mice were inoculated with mouse MC38 colon cancer cells in the left flank. When tumor volumes were 100 mm^3, they received intratumoral (IT) dose of 100 µg of SHR1032 on day 1, 5, 8 and 12 or IT dose of 50 µg ADU-S100 on day 1, 5, and 8, or vehicle, respectively. (a) Tumor volume was measured at different time points. Results are shown as mean tumor volume ± sem. (n = 8 animals per group). (b) Mouse bodyweight was measured at different time points. (c–f) C57BL/6 mice were inoculated with mouse MC38 colon cancer cells in the left flank. When tumor volumes were 100 mm^3, they received one IT dose of 100 µg of SHR1032 or 50 µg ADU-S100, or vehicle. (c) IFNβ, (d) IL-6 and (e) TNFα from both tumor and plasma was measured by ELISA 4 h after. (f) SHR1032 compound concentration in tumors were measured.
Human and Cynomolgous PBMC’s were thawed and spun down in Lymphocyte media (ZENBIO) and resuspended in media to 1.5 x 10^6 cells/ml density. Mouse RAW 264.7 cells were detached from the flask and resuspended in media to 1.5 x 10^6 cells/ml density. Then, 100 µl of media containing the cells was added to each well of a 96-well plate containing compound in 50 µl of media. Plates were incubated for 5 h at 37 °C and supernatant was collected for ELISA analysis. Human and monkey IFN-β protein concentration was measured using human IFN-β Quantikine ELISA Kits (R&D Systems) per manufacture’s protocol. Mouse IFN-β was measured using mouse IFN-β Quantikine ELISA Kits (R&D Systems) per manufacture’s protocol. Mouse TNFα, IFN-β and IL-6 in the tumor lysates and plasma was measured by Quantikine ELISA Kits (R&D Systems) per manufacture’s protocol.
Female C57BL/6 mice, aged between 8 and 10 weeks old, were purchased from Charles River Lab. MC38 mouse colorectal cancer cells were resuspended as single cell solution in PBS at a concentration of 5 × 10^6 cells/ml. One hundred µl of cell suspension were implanted in the right flank of mice subcutaneously. Tumor size was measured by a caliper in three dimensions and its volume was then calculated according to the following formula: Tumor Volume (mm^3) = l * w * h * 0.5236, where l = length, w = width and h = height in mm for a tumor. When the average tumor volume reached around 100 mm^3, the mice were randomly assigned into three groups (n = 8) and each group of mice received one regimen. This day was assigned as day 0 for the study. […] Tumor volume and body weight were measured 3 times per week throughout the study. […] Cytokines and SHR1032 concentration in the plasma and tumor tissues were analyzed. […]

The target of assay [6] is T1, human STING (Homo sapiens, UniProt Q86WV6).
T1 construct: made in house; host or cells: E. coli
Put plainly: Thermal shift assay. The class given is binding. The note with it: human STING protein 5 uM; ligand bound vs apo. The source says: (§2) We sought to develop small molecule compounds with increased STING agonist activity against human STING. GSK reported a series of non-CDN small molecules, represented by compound 1[13], with good human STING agonistic activity. Based on our molecular modeling analysis, along with the reported CDN-STING crystal structures, we designed a novel series of fused tricyclic heterocycle compounds and analyzed their binding to human STING with thermal shift assays and the potency in activation of STING signaling with a reporter cellular assay (Supplementary Table S1). Thermal shift assays measure the difference between apo STING and ligand bound STING in the inflection point at which 50% of protein is thermally unfolded (ΔTm). […] The ability of compounds to activate the IRF reporter gene in the THP1 cells was also evaluated.
The melting temperature (Tm) of human STING was determined by calculating the temperature at the inflection point of the thermal melt curve generated on a Roche LightCycler 480 using 384 plate format and 465–590 nm filter set. […] Florescence was measured while ramping the plate temperature from 20 to 95 °C and the resulting data was processed using ROCHE data analysis software. Delta Tms were calculated by subtracting the Tm of untreated protein from ligand treated samples. […]

The test system of assay [7] is THP1 reporter cells. The assay can be described thus: THP1 IRF luciferase reporter assay. The note with it: Homo sapiens, THP-1; IRF Lucia luciferase reporter, 24 h; read-out: THP1 reporter cell EC50. The format is cell-based.
Description: as §2
THP1 reporter cells were treated for 24 h with a total of 100 k cells and 150 ul media in each well a 96-well plate. […] Luminescence signal was measured using Tecan infinite M1000. EC50 values were calculated using non-linear regression analysis of GraphPad Prism. Cell growth was monitored by CellTiter-Glo Luminescent Cell Viability Assay (Promega) per manufacture’s protocol. GI50 values were calculated using non-linear regression analysis of GraphPad Prism. […]
Background: In a reporter assay the amount or activity of a reporter protein is the signal.

T1 sequence (Q86WV6 155-341 limits assumed): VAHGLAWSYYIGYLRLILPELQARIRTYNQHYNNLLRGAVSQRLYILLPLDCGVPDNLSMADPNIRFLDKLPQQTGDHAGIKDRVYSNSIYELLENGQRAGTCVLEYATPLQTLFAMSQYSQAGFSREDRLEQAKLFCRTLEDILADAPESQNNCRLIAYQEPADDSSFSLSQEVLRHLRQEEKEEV

As for `Nc1ccn([C@@H]2O[C@H](CO)[C@@H](O)[C@@H]2O)c(=O)n1` [cytarabine, reference compound], the values for the GI50 in assay [1] (Homo sapiens), in assay [2] and in assay [3] were 100 nM, 340 nM and 450 nM, respectively.
Turning to `Nc1ncnc2c1ncn2[C@@H]1O[C@@H]2COP(=O)([S-])O[C@@H]3[C@H](O)[C@@H](COP([O-])(=S)O[C@H]2[C@H]1O)O[C@H]3n1cnc2c(N)ncnc21.[Na+].[Na+]` (some centres unmarked) [ADU-S100, reference compound], in assay [4], the cell growth inhibition entry is “not detectable”. This compound gave a GI50 in assay [1] of 9440 nM. The tumor response entry in assay [5] is “complete tumor regression”.
Take `C=CC[C@H]1COc2cc(C(N)=O)cc3nc(NC(=O)c4cc(C)nn4CC)n1c23` [Compound 2]: in assay [6], the “Thermal shift ∆Tm” value amounted to 5.7 °C. In addition, the pEC50 in assay [7] is 5.80.

Usually GI50 stands for the concentration at which growth is held to half of that of the control. Usually pEC50 stands for −log10 of the EC50, conventionally taken in molar units.
